Square brackets hold non-standard residues; d marks the D form. Peptide text beside a SMILES is read from it.
Tests used:
[1] = target: phosphodiesterase; test: calcium-dependent phosphodiesterase assay in the absence of calmodulin; type: biochemical; settings: Table III
Procedure: To sample assay tubes were added the following components: assay buffer, 25 ul; CaCl2, 5 ul; 5'-nucleotidase, 7.5 ul (stock solution is 10 units/ml); calmodulin 5 units; calmodulin inhibitor peptides to obtain the desired final concentration of 50 μM. The volume was then made up to 200 ul with water. Control blanks were prepared replacing the peptides with water. The added components were thoroughly mixed and the tubes incubated at 30° C. for 10 min. Then, 25 ul of cAMP at 10.8 mM was added and incubated for 90 min at 30° C. The reaction was stopped by the addition of 50 ul of 55% trichloroacetic acid (TCA). The samples were centrifuged to remove the protein precipitate and the 50 ul of the supernatant was withdrawn for phosphate measurement. To the supernatant aliquot, 50 ul ammonium molybdate (0.55% in 1.1 N sulfuric acid) was added, followed by the addition of 5 ul of reducing agent (24 g sodium bisulfite, 2.4 g sodium sulfite, 0.5 g of 1-amino-2-naphthol-4-sulfonic acid in 200 ml of water), and the contents were mixed by vortexing. The absorbance of the solution were read at 660 nm using water as a blank, identified as control "Calmo."
As described above, one of the undesirable biological effects of existing calmodulin inhibitors is their non-specific binding to other proteins and the like. Therefore, the specificity of the instant inhibitory peptides for calmodulin was examined. The specificity was determined using the calcium-dependent phosphodiesterase assay described in Example I. The assay was carried out for the determination of IC50 values in the presence of calmodulin (IC50 value for calmodulin) and in the absence of calmodulin (IC50 for phosphodiesterase), the latter of which provides the effect of the inhibitory peptides on the phosphodiesterase.

[2] = target: calmodulin (Homo sapiens, UniProt P0DP23); test: electrophoretic band shift assay of peptide-calmodulin complexes; type: binding
Procedure: The following samples were subjected to electrophoresis in the gel lane indicated:
Because melittin is known to bind to calmodulin as described, for example, in Comte et al., Biochem. J., 209:269-272 (1983), in the above samples melittin is the positive control. The samples were incubated with calmodulin at 22° C. for 1 hr, and electrophoresed on a 10% acrylamide gel in Tris-glycine buffer under nondenaturating conditions as described in Head and Perry, Biochem. J., 137:145-154 (1974), which is incorporated herein by reference. The gel was then stained with coomasie blue.
The band shifts were also measured using a densitometer. Determination of band width by densitometry was done on the following samples: (1) calmodulin (1 nmol)+EDTA (2 nmol); (2) calmodulin (1 nmol)+Ca^2+ (1 nmol)+Ac-(D)Leu-(D)Trp-(D)Arg-(D)Ile-(D)Leu-(D)Trp-NH2 (100 nmol); and (3) calmodulin (1 nmol)+Ca^2+ (1 nmol).

[3] = system: NRK cells; test: long term stability: number of NRK cells at 48 hr after activation; type: cell-based, rat; settings: added at 5 hr, counted 48 hr after activation
From the text: The similar activity found for the (L)-amino acid peptides and (D)-amino acid peptides indicate that the inhibition of calmodulin occurs rapidly following the addition of the inhibitory peptides. The peptides' long term stability was then studied by adding Ac-(D)Leu-(D)Trp-(D)Arg-(D)Ile-(D)Leu-(D)Trp-NH2, Ac-Leu-Trp-Arg-Ile-Leu-Trp-NH2 (SEQ ID No. 48), W13 and W12 at 5 hr following the reentry of the NRK cells into the cell cycle and measuring the number of cells at 48 hr after activation.

For CC[C@@H](C)[C@@H](NC(=O)[C@@H](CCCNC(=N)N)NC(=O)[C@@H](Cc1c[nH]c2ccccc12)NC(=O)[C@@H](CC(C)C)NC(C)=O)C(=O)N[C@H](CC(C)C)C(=O)N[C@H](Cc1c[nH]c2ccccc12)C(N)=O [Ac-(D)Leu-(D)Trp-(D)Arg-(D)Ile-(D)Leu-(D)Trp-NH2] (Ac-[dL][dW][dR][dI][dL][dW]-NH2), the IC50 [1] was 118 µM, the “band shift (mobility change) on binding to calmodulin” value ([2]; in the presence of Ca2+) was “shifted relative to lane 8” and the “band shift (mobility change) on binding to calmodulin” value ([2]; with EDTA (no calcium)) was “no band shift”. For the same compound, the “number of cells relative to control cells” value [3] was “significantly lower number of cells”.

— patent US5840697A, “Peptide inhibitors of calmodulin” (Torrey Pines Institute for Molecular Studies, priority 1996, dated 1998)
